Test results from patent US9969758B2, “Antimicrobial compounds” (BIOMERIEUX, priority 2014, dated 2018).
≈ marks a conversion by molar mass, not a printed value. Values belong to the compound of their own block, whether it stands above or below them.

Assays:
[1] = tested on: Salmonella typhimurium NCTC 74; experiment: MIC by agar dilution, single strains; format: cell-based; details: Salmonella enterica, 22 hours of incubation, read-out: Minimum inhibitory concentration (MIC)
Description: (§1) Determining the minimum inhibitory concentrations (MIC). All the MICs were determined using an agar dilution method. This required use of a medium without a defined antagonist (peptone-free), prepared as described previously with the inclusion of 2% horse blood lysed with saponin, 25.0 μg/mL of NAD and 25.0 μg/mL of hemin [17]. The compounds tested were dissolved in sterile deionised water and incorporated into the agar medium in a concentration range of 0.0031 to 8.0 μg/mL (0.016 to 32 μg/mL for gram-positive bacteria). All the isolates were prepared at a density equivalent to 0.5 McFarland units in sterile deionised water using a densitometer (approximately 1.5×10^8 CFU/mL), and then diluted to 1 for 15. An aliquot of 1 μL of each diluted suspension was then placed onto plates with a multispot inoculator to give the final recommended inoculation of 10 000 CFU/spot. The MICs of fosfomycin were determined by the same method, except that the IsoSensitest medium (Oxoid, Basingstoke, United Kingdom) was used, plus 25.0 μg/mL of glucose-6-phosphate (Sigma, Poole, United Kingdom) and an extended range of fosfomycin concentrations. All the dishes (including the antimicrobial-free controls) were incubated for 22 hours at 37° C. All the tests were performed on at least two independent replicates in order to examine the reproducibility.

[2] = tested on: Yersinia enterocolitica NCTC 11176; experiment: MIC by agar dilution, single strains; format: cell-based; details: NCTC11176, 22 hours of incubation, read-out: Minimum inhibitory concentration (MIC)
Description: as §1

[3] = tested on: Enterococcus faecalis NCTC 775; experiment: MIC by agar dilution, single strains; format: cell-based; details: NCTC775, 22 hours of incubation, read-out: Minimum inhibitory concentration (MIC)
Description: as §1

[4] = tested on: Staphylococci epidermidis NCTC 11047; experiment: MIC by agar dilution, single strains; format: cell-based; details: 22 hours of incubation, read-out: Minimum inhibitory concentration (MIC)
Description: as §1

[5] = tested on: Burkholderia cepacia ATCC 25416; experiment: MIC by agar dilution, single strains; format: cell-based; details: ATCC25416, 22 hours of incubation, read-out: Minimum inhibitory concentration (MIC)
Description: as §1

[6] = tested on: Pseudomonas aeruginosa NCTC 10662; experiment: MIC by agar dilution, single strains; format: cell-based; details: NCTC10662, 22 hours of incubation, read-out: Minimum inhibitory concentration (MIC)
Description: as §1

[7] = tested on: Enterococcus faecium NCTC 7171; experiment: MIC by agar dilution, single strains; format: cell-based; details: NCTC7171, 22 hours of incubation, read-out: Minimum inhibitory concentration (MIC)
Description: as §1

[8] = tested on: Enterobacter cloacae NCTC 11936; experiment: MIC by agar dilution, single strains; format: cell-based; details: NCTC11936, 22 hours of incubation, read-out: Minimum inhibitory concentration (MIC)
Description: as §1

[9] = tested on: Staphylococcus aureus NCTC 11939 (SARM); experiment: MIC by agar dilution, single strains; format: cell-based; details: NCTC11939, 22 hours of incubation, read-out: Minimum inhibitory concentration (MIC)
Description: as §1

[10] = tested on: Staphylococcus aureus NCTC 6571; experiment: MIC by agar dilution, single strains; format: cell-based; details: NCTC6571, 22 hours of incubation, read-out: Minimum inhibitory concentration (MIC)
Description: as §1

[11] = tested on: Escherichia coli NCTC 10418; experiment: MIC by agar dilution, single strains; format: cell-based; details: NCTC10418, 22 hours of incubation, read-out: Minimum inhibitory concentration (MIC)
Description: as §1

[12] = tested on: Providencia rettgeri NCTC 7475; experiment: MIC by agar dilution, single strains; format: cell-based; details: NCTC7475, 22 hours of incubation, read-out: Minimum inhibitory concentration (MIC)
Description: as §1

[13] = tested on: Listeria monocytogenes NCTC 11994; experiment: MIC by agar dilution, single strains; format: cell-based; details: NCTC11994, 22 hours of incubation, read-out: Minimum inhibitory concentration (MIC)
Description: as §1

[14] = tested on: Escherichia coli NCTC 12241; experiment: MIC by agar dilution, single strains; format: cell-based; details: NCTC12241, 22 hours of incubation, read-out: Minimum inhibitory concentration (MIC)
Description: as §1

[15] = tested on: Acinetobacter baumannii ATCC 19606; experiment: MIC by agar dilution, single strains; format: cell-based; details: ATCC19606, 22 hours of incubation, read-out: Minimum inhibitory concentration (MIC)
Description: as §1

[16] = tested on: Serratia marcescens NCTC 10211; experiment: MIC by agar dilution, single strains; format: cell-based; details: NCTC10211, 22 hours of incubation, read-out: Minimum inhibitory concentration (MIC)
Description: as §1

[17] = tested on: Salmonella enteritidis NCTC 6676; experiment: MIC by agar dilution, single strains; format: cell-based; details: Salmonella enterica, 22 hours of incubation, read-out: Minimum inhibitory concentration (MIC)
Description: as §1

[18] = tested on: Klebsiella pneumoniae NCTC 9528; experiment: MIC by agar dilution, single strains; format: cell-based; details: NCTC9528, 22 hours of incubation, read-out: Minimum inhibitory concentration (MIC)
Description: as §1

E. faecium (34) = experiment: MIC by agar dilution; format: cell-based, Enterococcus faecium; details: Enterococcus faecium, E. faecium (34)
Excerpt: (§2) A collection of 50 isolates of Staphylococci aureus included 36 strains of methicillin-resistant S. aureus (MRSA) frequently encountered in Europe, including strains isolated in Belgium, Finland, France, Germany and the United Kingdom. Another strain of MRSA, NCTC 11939, was included as a control, as well as a methicillin-sensitive control (NCTC 6571). Twelve other isolates of methicillin-sensitive Staphylococcus aureus (MSSA) recently collected from blood cultures were also included. Finally, 50 isolates of enterococci included two control strains (Enterococcus faecalis NCTC 755 and Enterococcus faecium NCTC 7171) and 48 isolates originating from clinical samples obtained from at least three different hospitals. The clinical isolates included E. faecalis (n=10), E. faecium (n=33), Enterococcus casseliflavus (n=3), Enterococcus gallinarum (n=2).
as §1

AmpC (22) = experiment: MIC by agar dilution; format: cell-based, Enterobacteriaceae
Excerpt: (§3) Bacterial isolates. […] These included Citrobacter freundii (n=5), other species of Citrobacter (n=4), Enterobacter aerogenes (n=1), Enterobacter cloacae (n=27), Escherichia coli (n=53), Klebsiella oxytoca (n=5), Klebsiella pneumoniae (n=87), Kluyvera spp (n=1), Proteus mirabilis (n=8), Providencia rettgeri (n=2), Salmonella spp (n=3), and Serratia marcescens (n=1). Among these 197 isolates, there were 128 (65%) carbapenemase producers, including; 87 with NDM-1, 9 with IMP, 11 with KPC, 14 with OXA-48 and 7 with VIM. The majority of the carbapenemase producers jointly produced broad-spectrum β-lactamases (BSBL) or cephalosporinases (AmpC β-lactamases), but the latter are not documented for the sake of clarity.
as §1

E. faecalis (11) = experiment: MIC by agar dilution; format: cell-based, Enterococcus faecalis; details: Enterococcus faecalis, E. faecalis (11)
Excerpt: as §2, §1

K. pneumoniae (87) = experiment: MIC by agar dilution; format: cell-based, Klebsiella pneumoniae; details: Klebsiella pneumoniae, K. pneumoniae (87)
Excerpt: as §3, §1

E. cloacae (27) = experiment: MIC by agar dilution; format: cell-based, Enterobacter cloacae; details: Enterobacter cloacae, E. cloacae (27)
Excerpt: as §3, §1

[19] = tested on: methicillin-resistant Staphylococcus aureus; experiment: MIC by agar dilution; format: cell-based; details: Staphylococcus aureus, MRSA (37)
Excerpt: as §2, §1

[20] = tested on: methicillin-sensitive Staphylococcus aureus; experiment: MIC by agar dilution; format: cell-based; details: MSSA (13)
Excerpt: as §2, §1

All Enterococci (50) = experiment: MIC by agar dilution; format: cell-based; details: All Enterococci (50)
Excerpt: as §2, §1

[21] = tested on: glycopeptide-resistant enterococci; experiment: MIC by agar dilution; format: cell-based; details: GRE (43)
Excerpt: as §2, §1

[22] = tested on: carbapenemase-producing Enterobacteriaceae; experiment: MIC by agar dilution; format: cell-based
Excerpt: as §3, §1

[23] = tested on: Enterobacteriaceae with a broad-spectrum β-lactamase; experiment: MIC by agar dilution; format: cell-based; details: BSBL (47)
Excerpt: as §3, §1

Enterobacteriaceae (197) = experiment: MIC by agar dilution; format: cell-based; details: Enterobacteriaceae (197)
Excerpt: as §3, §1

All S. aureus (50) = experiment: MIC by agar dilution; format: cell-based, Staphylococcus aureus; details: Staphylococcus aureus, All S. aureus (50)
Excerpt: as §2, §1

E. coli (53) = experiment: MIC by agar dilution; format: cell-based, Escherichia coli; details: E. coli (53)
Excerpt: as §3, §1

[24] = read-out: Modal MIC (most frequent MIC)

- MIC [1]: > 8 µg/mL
- MIC [2]: 0.5 µg/mL (≈ 1.53 µM)
- MIC [3]: 0.125 µg/mL (≈ 0.382 µM)
- MIC [4]: 2 µg/mL (≈ 6.11 µM)
- MIC [5]: > 8 µg/mL
- MIC [6]: > 8 µg/mL
- MIC [7]: 4 µg/mL (≈ 12.2 µM)
- MIC [8]: > 8 µg/mL
- MIC [9]: > 8 µg/mL
- MIC [10]: 1 µg/mL (≈ 3.05 µM)
- MIC [11]: 2 µg/mL (≈ 6.11 µM)
- MIC [12]: > 8 µg/mL
- MIC [13]: > 8 µg/mL
- MIC [14]: 2 µg/mL (≈ 6.11 µM)
- MIC [15]: > 8 µg/mL
- MIC [16]: 0.5 µg/mL (≈ 1.53 µM)
- MIC [17]: > 8 µg/mL
- MIC [18]: 0.5 µg/mL (≈ 1.53 µM)
SMILES: CSCC[C@H](N)C(=O)N[C@@H](C)C(=O)NC(C)P(=O)(O)O (stereo partly drawn) [compound J, L-methionyl-L-alanyl-D/L fosfalin]

SMILES: C[C@@H]1O[C@@H]1P(=O)(O)O [Fosfomycin, disodium [(2R,3S)-3-methyloxiran-2-yl] phosphonate]
- MIC50 (E. faecium (34); read-out: MIC50): > 32 µg/mL
- MIC90 (E. faecium (34); read-out: MIC90): > 32 µg/mL
- MIC (E. faecium (34); [24]): > 32 µg/mL
- MIC90 (AmpC (22)): > 32 µg/mL
- MIC (AmpC (22); [24]): 32 µg/mL
- MIC50 (E. faecalis (11); read-out: MIC50): 32 µg/mL
- MIC90 (E. faecalis (11); read-out: MIC90): > 32 µg/mL
- MIC (E. faecalis (11); [24]): 32 µg/mL
- MIC50 (K. pneumoniae (87); read-out: MIC50): 8 µg/mL
- MIC90 (K. pneumoniae (87); read-out: MIC90): > 32 µg/mL
- MIC (K. pneumoniae (87); [24]): 4 µg/mL
- MIC50 (E. cloacae (27); read-out: MIC50): 16 µg/mL
- MIC90 (E. cloacae (27); read-out: MIC90): 32 µg/mL
- MIC (E. cloacae (27); [24]): 16 µg/mL
- MIC50 ([19]; read-out: MIC50): 4 µg/mL
- MIC90 ([19]; read-out: MIC90): 16 µg/mL
- MIC [19, 24]: 8 µg/mL
- MIC Range [20]: 2 to 16 µg/mL
- MIC50 ([20]; Staphylococcus aureus, read-out: MIC50): 4 µg/mL
- MIC90 ([20]; Staphylococcus aureus, read-out: MIC90): 16 µg/mL
- MIC ([20]; Staphylococcus aureus, read-out: Modal MIC (most frequent MIC)): 4 µg/mL
- MIC50 (All Enterococci (50); read-out: MIC50): > 32 µg/mL
- MIC90 (All Enterococci (50); read-out: MIC90): > 32 µg/mL
- MIC (All Enterococci (50); [24]): > 32 µg/mL
- MIC50 ([21]; read-out: MIC50): > 32 µg/mL
- MIC90 ([21]; read-out: MIC90): > 32 µg/mL
- MIC [21, 24]: > 32 µg/mL
- MIC50 [22]: 4 µg/mL
- MIC90 [22]: 32 µg/mL
- MIC [22, 24]: 16 µg/mL
- MIC50 ([23]; read-out: MIC50): 8 µg/mL
- MIC90 ([23]; read-out: MIC90): > 32 µg/mL
- MIC [23, 24]: > 32 µg/mL
- MIC50 (Enterobacteriaceae (197); read-out: MIC50): 4 µg/mL
- MIC90 (Enterobacteriaceae (197); read-out: MIC90): > 32 µg/mL
- MIC (Enterobacteriaceae (197); [24]): 4 µg/mL
- MIC50 (All S. aureus (50); read-out: MIC50): 4 µg/mL
- MIC90 (All S. aureus (50); read-out: MIC90): 16 µg/mL
- MIC (All S. aureus (50); [24]): 8 µg/mL
- MIC Range (E. coli (53)): 0.125 to 8 µg/mL
- MIC50 (E. coli (53); Escherichia coli, read-out: MIC50): 0.5 µg/mL
- MIC90 (E. coli (53); Escherichia coli, read-out: MIC90): 1 µg/mL
- MIC (E. coli (53); Escherichia coli, read-out: Modal MIC (most frequent MIC)): 0.5 µg/mL
